Data published in patent US20240239789A1, “SALTS OF 2-BRO[…] DIETHYLAMIDE” (Ceruvia Lifesciences LLC, priority 2022, published 2024).

Key:
Assay type in all cases: physicochemical
[1] = Thermogravimetric analysis (TGA) weight loss after drying; conditions: after drying in vacuo at 50° C. for 18 hours; between 25° C. and 200° C.; heating rate 20° C./min
Protocol: TGA data were collected on a TA Instruments Discovery TGA equipped with a 25-position auto-sampler. The instrument was calibrated using a certified weight and certified Alumel and Nickel for temperature. A predefined amount of the sample, ca. 5 mg, was loaded into a pre-tared aluminum ACCUPIK™ sample pan and platinum crucible and was heated at 20° C./min from ambient (room) temperature to 400° C. unless otherwise stated. A nitrogen purge at 25 mL/min was maintained over the sample. The instrument control, data acquisition and analysis were performed with TA Instruments TRIOS software v4.1.1.33073.

[2] = Dynamic vapor sorption (DVS) moisture sorption analysis
Protocol: (§1) Sorption isotherms were obtained using a Hiden Isochema moisture sorption analyser (model IGAsorp), controlled by IGAsorp Systems Software V6.50.48. The sample was maintained at a constant temperature (25° C.) by the instrument controls. The humidity was controlled by mixing streams of dry and wet nitrogen, with a total flow of 250 mL/min. The instrument was verified for relative humidity content by measuring three calibrated Rotronic salt solutions (10-50-88%). The weight change of the sample was monitored as a function of humidity by a microbalance (accuracy +/−0.005 mg). A defined amount of sample was placed in a tared mesh stainless steel basket under ambient conditions. A full experimental cycle typically consisted of three scans (sorption, desorption and sorption) at a constant temperature (25° C.) and 10% RH intervals over a 0-90% range (60 minutes for each humidity level).

[3] = XRPD analysis ex DVS following equilibration at extremes of humidity; conditions: 0% and 90% relative humidity
Description: The crystalline salts of 2-Br-LSD were characterized by their powder X-ray diffraction patterns. Powder X-ray diffractograms of the crystalline salts of 2-Br-LSD described herein were collected on a PANalytical X'pert PRO diffractometer using Cu Kα radiation (45 kV, 40 mA), θ-θ goniometer, focusing mirror, divergence slit (½″), soller slits at both incident and divergent beam (4 mm) and a PIXcel detector. Data was presented using X'Pert Data Viewer, version 1.2d. XRPD patterns were acquired under ambient conditions via a transmission foil sample stage (polyimide—Kapton®, 12.7 μm thickness film). The data collection range was 2.994-35° 2θ with a continuous scan speed of 0.202004° s^−1. Lists of major XRPD peaks (relative intensity ≥10%) for the crystalline salts of the present disclosure are tabulated below.
as §1, with “A defined amount of sample was placed in a tared mesh stainless steel basket under ambient conditions. A full experimental cycle typically consisted of three scans (sorption, desorption and sorption) at a constant temperature (25° C.) and 10% RH intervals over a 0-90% range (60 minutes for each humidity level).” left out

Compound: Br.CCN(CC)C(=O)[C@@H]1C=C2c3cccc4[nH]c(Br)c(c34)C[C@H]2N(C)C1 [2-Br-LSD hydrobromide (Form 1), 2-bromolysergic acid diethylamide hydrobromide]
- weight loss upon thermogravimetric analysis [1]: less than 1%
- weight change upon dynamic vapor sorption analysis ([2]; 25° C., RH range 0-90%, 10% RH intervals, 60 minutes for each humidity level): less than 0.5%
- water retained at 0% RH (reversibility of water uptake) ([2]; 25° C., desorption to 0% RH): no water was retained
- further weight increase between 60% RH and 90% RH ([2]; 25° C., initial sorption cycle, between 60% RH and 90% RH): 0.2 wt %
- water gained during initial sorption cycle up to 60% RH ([2]; 25° C., initial sorption cycle, up to 60% RH): 0.21%
- total water uptake ([2]; 25° C., initial sorption cycle, up to 90% RH): 0.4%
- hygroscopicity ([2]; definition in b65: TGA <1% weight loss and DVS <about 0.5% weight change): non-hygroscopic
- solid form change following equilibration at extremes of humidity [3]: no form change occurred
